MMI data for 14 molecules are collected here from patent US20150337349A1, “Microbiome Modulation Index” (SECOND GENOME, INC., priority 2013, published 2015).

Counter-ions that a name gives are not always drawn.

The subject of this experiment is fecal microbial communities (OTUs). In words: Microbiome Modulation Index (MMI) from 16S rRNA V4 profiling of fecal samples before and after agent administration. The experiment is classed as in vivo, c57bl/6 mice. The note with it: oral gavage daily for 5 consecutive days at Table 1 mouse dose; day 0 vs day 5 fecal samples; MMI = d/d0 relative to control mice; variability weight gi applied. The procedure: Twenty five agents were selected to span multiple indications (Table 1). For each agent, the effective dose for the mouse was determined through a comprehensive search of the literature (Table 1). Working formulations were created by suspending agents in 1× phosphate buffered saline (PBS).
A total of 156 six-week old c57bl/6 mice (78 males and 78 females) were housed in separate cages 5 days prior to agent administration. Animals were handled daily by caretakers during this acclimation period. Animals were fed a standard chow diet throughout the course of the study.
Animals were treated with agents via oral gavage daily for 5 consecutive days beginning on day 1. N=6 mice per agent; 3 male+3 female. Fecal samples were collected using the ‘clean catch’ method in which the mice were held by the tail, causing them to defecate. Feces were collected in a sterile tube and immediately frozen and stored at −80° C. Fecal samples were collected in the morning prior to agent administration on the following days: −1,0,4,5.
Frozen day 0 and day 5 fecal specimens corresponding to 15 treatment groups (PBS+(Table 3) were profiled using Second Genome's Microbiome Signature Discovery™ service (San Bruno, Calif.). DNA was isolated using the PowerSoil DNA Isolation Kit following the manufacturer's instructions (MoBio Laboratories, Carlsbad, Calif.). For V4 sequencing assay profiling, the V4 region of the 16S rRNA genes was amplified using fusion primers tailed with Illumina sequencing adapters and indexing barcodes according to a previously described technique (Caporaso, 2010, PMID: 20534432). For each sample, amplified products were concentrated, purified and quantified by electrophoresis using an Agilent 2100 Bioanalyzer, then pooled for sequencing using the MiSeq (Illumina, San Diego, Calif.) instrument.
Using the software QIIME (Kuczynski, 2012, PMID: 23184592) and custom scripts, sequences were quality filtered and de-multiplexed using exact matches to the supplied DNA barcodes. Resulting sequences were then clustered into reference OTUs (rOTUs) by uclust (Edgar, 2010, PMID: 20709691) matching each sequence against the Greengenes sequences pre-clustered at 97%, a practice commonly referred to as “closed-reference OTU picking”. The longest Illumina-generated sequence from each of OTUs thus formed was then used as the OTU representative sequence, and assigned taxonomic classification via mothur's bayesian classifier (Schloss, 2009, PMID: 19801464) trained against the Greengenes database. Taxonomic annotations at 80% bootstrapped confidence were applied. Total sequence counts per fecal sample were scaled to be identical. Seven samples (MDO5M027D0, MD10M057D0, Md12F07D0, MD01F006D5, MD06F035D5, MD13M074D5, and MD04F023D5) were excluded following sequence quality filtering and alignment due to low sequence yield. Taxa were filtered to those present in at least one of the samples.
MMIs were calculated for the PBS control and 14 of the tested drugs. To calculate the MMI of an agent, an intermediate value d was calculated for each mouse administered with the respective agent. The abundance of each OTU before treatment in that mouse was compared to the abundance of that OTU after treatment as in exemplary Equation 11: […]
where A1i represents the abundance of OTU i at time-point 1 (post-administration), where A0i represents the abundance of OTU i at time-point 0 (pre-administration) gi represents a variability weight applied to each OTU, discussed below.
Once d was calculated for each mouse, d values for each administered mouse are averaged, and the resulting d was compared to a reference level of change d0 in a control group of mice not administered the agent. The value d0 is determined on the basis of laboratory studies of untreated mice in similar conditions (e.g., a similar number of samples to the number of samples obtained from treated mice).
The MMI is then calculated as in exemplary Equation 12: […]
For the molecule `CC(=O)Oc1ccccc1C(=O)O` [Acetylsiacylic_acid], the MMI worked out at 1.093. The value for `NCCCC(O)(P(=O)(O)O)P(=O)(O)O` [Alendronate_sodium_trihydrate] was 1.107; that for `CC1(C)S[C@@H]2[C@H](NC(=O)[C@H](N)c3ccc(O)cc3)C(=O)N2[C@H]1C(=O)O` [Amoxycillin] was 2.397. The value for `CC(C)c1c(C(=O)Nc2ccccc2)c(-c2ccccc2)c(-c2ccc(F)cc2)n1CC[C@@H](O)C[C@@H](O)CC(=O)O` [Atorvastatin_calcium_salt_trihydrate] was 1.278. Consider `CC[C@H]1OC(=O)[C@H](C)[C@@H](O[C@H]2C[C@@](C)(OC)[C@@H](O)[C@H](C)O2)[C@H](C)[C@@H](O[C@@H]2O[C@H](C)C[C@H](N(C)C)[C@H]2O)[C@](C)(O)C[C@@H](C)CN(C)[C@H](C)[C@@H](O)[C@]1(C)O` [Azithromycin], for which the MMI came to 2.202. As for `CCN(CC)CCOC(=O)C1(C2CCCCC2)CCCCC1` [Dicyloamine_hydrochloride], the MMI amounted to 1.222. The value for `CN(C)CCOC(c1ccccc1)c1ccccc1` [Diphenhydramine_hydrochloride] was 1.202; that for `COc1ccc2[n-]c([S@@+]([O-])Cc3ncc(C)c(OC)c3C)nc2c1.COc1ccc2[n-]c([S@@+]([O-])Cc3ncc(C)c(OC)c3C)nc2c1.[Mg+2]` [Esomeprazole_magnesium_hydrate] was 1.1. As to `OC(Cn1cncn1)(Cn1cncn1)c1ccc(F)cc1F` [Fluconazole], the MMI worked out at 1.003. As for `CNCCC(Oc1ccc(C(F)(F)F)cc1)c1ccccc1` (centres unmarked) [Fluoxetine_hydrochloride], the MMI stood at 1.44. Take `Nc1ccc(O)c(C(=O)O)c1` [Mesalamine]: the MMI is recorded as 1.131. With `CN(C)C(=N)N=C(N)N` [Metformin_hydrochloride], the MMI turned out to be 1.628.

`C[C@]12C=CC(=O)C=C1CC[C@@H]1[C@@H]2[C@@H](O)C[C@@]2(C)[C@H]1CC[C@]2(O)C(=O)COC(=O)CCC(=O)[O-].[Na+]` [Prednisalone_21-hemisuccinate_sodium_salt] returned an MMI of 1.262. Next, `Cc1ccc(-c2nc3ccc(C)cn3c2CC(=O)N(C)C)cc1` [Zolpidem_tartrate]: 1.443.
